From the NIST ThermoML archive (doi:10.1016/j.jct.2015.09.022)

Test: xn = mol fraction of the nth substance listed
Settings: 100.7 kPa, Liquid; for viscosity: Falling or rolling sphere viscometry; for speed of sound: Frequency=3 MHz, Sing-around technique in a fixed-path interferometer; for mass density: Vibrating tube method

CCCCN [1-butanamine] + CCCC[n+]1ccn(C)c1.O=S(=O)([N-]S(=O)(=O)C(F)(F)F)C(F)(F)F
Settings	mass density [kg/m3]	speed of sound [m/s]	viscosity [mPa·s]
298.15 K, x2 = 0	733.33	1246.5	0.47
298.15 K, x2 = 0.0261	–	1234	–
298.15 K, x2 = 0.0486	–	1225.4	–
298.15 K, x2 = 0.0804	–	1216.5	–
298.15 K, x2 = 0.1026	916.12	1211.6	2.11
298.15 K, x2 = 0.2026	1042.14	1203.5	4.44
298.15 K, x2 = 0.3004	1134.03	1203.2	7.22
298.15 K, x2 = 0.4056	1209.89	1205.1	11.01
298.15 K, x2 = 0.5051	1266.69	1208	14.99
298.15 K, x2 = 0.6119	1316.23	1212	20.24
298.15 K, x2 = 0.7025	1351.49	1215.1	25.4
298.15 K, x2 = 0.8002	1383.95	1218.1	32.04
298.15 K, x2 = 0.9015	1412.83	1222.9	40.3
303.15 K, x2 = 0	728.5	1223.9	0.44
303.15 K, x2 = 0.0261	–	1212.2	–
303.15 K, x2 = 0.0486	–	1204.5	–
303.15 K, x2 = 0.0804	–	1196.3	–
303.15 K, x2 = 0.1026	911.59	1192.1	1.59
303.15 K, x2 = 0.2026	1037.64	1186.4	3.23
303.15 K, x2 = 0.3004	1129.36	1187.1	5.31
303.15 K, x2 = 0.4056	1205.12	1190	8.35
303.15 K, x2 = 0.5051	1262.02	1193.8	11.71
303.15 K, x2 = 0.6119	1311.69	1198.9	16.01
303.15 K, x2 = 0.7025	1346.8	1203	20.08
303.15 K, x2 = 0.8002	1379.23	1208	25.55
303.15 K, x2 = 0.9015	1408.07	1212.9	32.07
308.15 K, x2 = 0	723.67	1201.3	0.41
308.15 K, x2 = 0.0261	–	1190.3	–
308.15 K, x2 = 0.0486	–	1183.5	–
308.15 K, x2 = 0.0804	–	1177.2	–
308.15 K, x2 = 0.1026	907.02	1174.1	1.31
308.15 K, x2 = 0.2026	1033.16	1169	2.63
308.15 K, x2 = 0.3004	1124.87	1170.3	4.2
308.15 K, x2 = 0.4056	1200.55	1174.5	6.58
308.15 K, x2 = 0.5051	1257.23	1178.9	9.28
308.15 K, x2 = 0.6119	1306.91	1184.8	12.71
308.15 K, x2 = 0.7025	1342.12	1189.6	16.01
308.15 K, x2 = 0.8002	1374.49	1195.6	20.49
308.15 K, x2 = 0.9015	1403.3	1200.9	26.13
313.15 K, x2 = 0	718.66	1178.7	0.39
313.15 K, x2 = 0.0261	–	1169.5	–
313.15 K, x2 = 0.0486	–	1163.2	–
313.15 K, x2 = 0.0804	–	1157.5	–
313.15 K, x2 = 0.1026	902.44	1155	1.1
313.15 K, x2 = 0.2026	1028.65	1152.5	1.99
313.15 K, x2 = 0.3004	1120.14	1155.1	3.21
313.15 K, x2 = 0.4056	1195.66	1160	4.98
313.15 K, x2 = 0.5051	1252.53	1165.2	7.11
313.15 K, x2 = 0.6119	1302.05	1171.9	9.9
313.15 K, x2 = 0.7025	1337.26	1177.8	12.8
313.15 K, x2 = 0.8002	1369.77	1184.5	16.65
313.15 K, x2 = 0.9015	1398.51	1190.5	21.62
318.15 K, x2 = 0	714.1	1156.2	0.37
318.15 K, x2 = 0.0261	–	1148.2	–
318.15 K, x2 = 0.0486	–	1143.2	–
318.15 K, x2 = 0.0804	–	1138.2	–
318.15 K, x2 = 0.1026	898.17	1137.8	0.87
318.15 K, x2 = 0.2026	1024.27	1137.2	1.57
318.15 K, x2 = 0.3004	1115.68	1141.4	2.53
318.15 K, x2 = 0.4056	1191.05	1146.8	3.95
318.15 K, x2 = 0.5051	1247.99	1152.5	5.65
318.15 K, x2 = 0.6119	1297.45	1160	7.95
318.15 K, x2 = 0.7025	1332.6	1167	10.45
318.15 K, x2 = 0.8002	1364.99	1174.2	13.75
318.15 K, x2 = 0.9015	1393.75	1180.5	17.99
323.15 K, x2 = 0	709.21	1133.5	0.35
323.15 K, x2 = 0.0261	–	1126.2	–
323.15 K, x2 = 0.0486	–	1121.5	–
323.15 K, x2 = 0.0804	–	1117.8	–
323.15 K, x2 = 0.1026	893.96	1118.6	0.74
323.15 K, x2 = 0.2026	1019.8	1119	1.32
323.15 K, x2 = 0.3004	1110.93	1124.5	2.09
323.15 K, x2 = 0.4056	1186.44	1130.6	3.26
323.15 K, x2 = 0.5051	1243.22	1137.2	4.64
323.15 K, x2 = 0.6119	1292.55	1145.6	6.49
323.15 K, x2 = 0.7025	1327.75	1153	8.48
323.15 K, x2 = 0.8002	1360.33	1161.3	11.32
323.15 K, x2 = 0.9015	1389.17	1168.3	14.91
